Target: T1, guanylate cyclase (Oryctolagus cuniculus, UniProt G1TXB5)
T1 sequence (G1TXB5 28-1056): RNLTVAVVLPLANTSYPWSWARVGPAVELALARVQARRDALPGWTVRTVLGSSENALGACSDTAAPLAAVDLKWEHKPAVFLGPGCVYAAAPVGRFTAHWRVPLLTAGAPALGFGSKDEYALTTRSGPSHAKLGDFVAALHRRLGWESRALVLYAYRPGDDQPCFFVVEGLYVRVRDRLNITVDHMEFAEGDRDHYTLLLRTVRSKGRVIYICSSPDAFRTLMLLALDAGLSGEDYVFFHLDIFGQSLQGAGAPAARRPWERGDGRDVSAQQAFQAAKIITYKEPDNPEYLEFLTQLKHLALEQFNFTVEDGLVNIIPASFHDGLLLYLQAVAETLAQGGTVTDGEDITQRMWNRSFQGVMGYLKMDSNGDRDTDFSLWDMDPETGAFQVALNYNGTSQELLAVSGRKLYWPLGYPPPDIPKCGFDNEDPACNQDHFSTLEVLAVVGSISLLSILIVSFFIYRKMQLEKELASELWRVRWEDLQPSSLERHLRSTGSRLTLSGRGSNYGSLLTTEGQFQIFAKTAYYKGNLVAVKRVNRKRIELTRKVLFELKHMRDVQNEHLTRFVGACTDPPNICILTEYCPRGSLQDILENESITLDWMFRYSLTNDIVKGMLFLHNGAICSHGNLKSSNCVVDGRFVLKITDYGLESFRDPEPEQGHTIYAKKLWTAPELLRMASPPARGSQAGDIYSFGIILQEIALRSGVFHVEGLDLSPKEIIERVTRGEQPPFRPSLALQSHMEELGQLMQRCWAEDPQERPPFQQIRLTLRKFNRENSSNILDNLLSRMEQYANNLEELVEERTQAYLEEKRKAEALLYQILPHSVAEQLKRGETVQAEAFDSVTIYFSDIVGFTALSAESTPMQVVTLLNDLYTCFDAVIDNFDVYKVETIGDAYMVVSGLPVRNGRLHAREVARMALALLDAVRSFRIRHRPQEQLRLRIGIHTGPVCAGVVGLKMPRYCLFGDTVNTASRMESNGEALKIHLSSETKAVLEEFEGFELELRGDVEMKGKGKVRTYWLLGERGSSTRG
Test: Atriopeptin-activated guanylate cyclase in ciliary process membrane (P1) fractions
Type: biochemical, rabbit
Set-up: tissues were homogenized (10 mg wet weight per milliliter); from tissue; host or cells: rabbit cerebral microvessels, choroid plexus, kidney, ciliary process, pia-arachnoid, cerebellum; 100,000 g P1 pellet
Details: mean ± range of duplicate determinations
Procedure: Ciliary process tips were obtained from male, 3-4 kg, New Zealand white rabbits, immediately following sacrifice with an overdose of ether, as described in Nathanson, Invest. Ophthal. Vis. Sci., 21:7981 (1982). The tissue was minced and homogenized (10 mg/ml) by hand in a glass-glass homogenizer in a buffer consisting of 50 mM Tris HCl, pH 8.0; 1mM EDTA, and 250mM sucrose. The homogenate was diluted 30-fold with buffer and centrifuged at 100,000 x g, to obtain a P1 fraction. The pellet was rehomogenized in the original volume and left on ice until use. P1 fractions were also prepared from wedges of rabbit kidney taken from the same animals. In some experiments, P1 fractions were prepared from iris and from ciliary body, as described in Nathanson, Proc. Natl. Acad. Sci. USA, 77:7420 (1980). Briefly, iris was removed from its attachment to the ciliary body, cleaned of adhering ciliary process tissue, washed, and homogenized as above. The ciliary muscle was cleaned of most remaining ciliary process tissue, freed from the underlying sclera by blunt and sharp dissection, and then washed and homogenized.
Atriopeptin-activated guanylate cyclase activity was measured as the rate of conversion of GTP to cyclic GMP. […]
For RIA, each tube contained (in 0.5ml), 50mM sodium acetate buffer (pH 6.2), 2mM EDTA, 1mg/ml bovine serum albumin, 0.1 ml of sample (or diluted sample), 8,000-15,000 cpm (about 5 fmole) of ¹²⁵I succinyl cyclic GMP tyrosine methyl ester, and antibody to bind 25-35% of the label. […] Activation constants (Ka) were determined from dose-response curves utilizing 12-14 data points (6-7 concentrations of hormone, in duplicate), each point representing the mean of triplicate RIA determinations.
Atriopeptin-activated guanylate cyclase activity was measured, as described in Example 5, in membranes from rabbit kidney and ciliary process prepared as in Example 4. […]

Row | Substance | Vmax Stimulation (%) of Guanylate Cyclase Ciliary Process [%]
1 | Ser-Leu-Arg-Arg-atriopeptin III (APIII) [rANP 1-28] | 124 ± 5
2 | rANP 13-28 (DRIGAQSGLGCNSFRY; Atrial natriuretic peptide; UniProt P01161 135-150, looked up, fragment) | 51 ± 5

Source: patent EP0583821A1, “Atriopeptins, guanylate cyclase activators, and phosphodiesterase inhibitors as treatment for glaucoma, hydrocephalus and cerebral edema (cranial fluid volume dysfunction)” (THE GENERAL HOSPITAL CORPORATION, priority 1987, dated 1988)
